For one assay, the target named is PERK (Homo sapiens (Human), UniProt Q9NZJ5). Description: PERK cellular assay (TR-FRET, HEK293-EGFP-eIF2α cells, tunicamycin-induced ER stress). Format: cell-based. Particulars: tunicamycin 2 hours, read-out: Cellular IC50 (μM) (EIF2a). The method, then:
Stable cell lines were created in HEK293 cells using lentiviral particles harboring an expression vector for GFP-eIF2α. Cells were selected using puromycin and enriched using fluorescence activated cell sorting against GFP. HEK293-EGFP-eIF2α cells were plated at 5000 cells/well in 384-well assay plates and incubated overnight at 37° C., 5% CO2. Inhibitor compounds were added to the wells by Echo acoustic dispensing and incubated for 30 minutes at 37° C., 5% CO2 prior to induction of ER stress by addition of tunicamycin to […] for 2 hours. Cells were lysed and TR-FRET was measured in an EnVision plate reader (PerkinElmer). FRET ratio data was normalized to signal from lysates treated with DMSO vehicle control and plotted as percent inhibition against 10-point; 3-fold dilution series of inhibitors. IC50 values were calculated using 4-parameter logistical fitting in XLFit.
(Time-resolved FRET reads energy transfer from a long-lived donor to a nearby acceptor.)

Assay [1] addresses EIF2AK3 (PERK) catalytic domain (amino acids 536-1116) (Homo sapiens (Human), UniProt Q9NZJ5). Description: PERK in vitro activity assay (isolated), TR-FRET kinase assay. The note with it: isolated PERK enzyme, 1.5 μM ATP, GFP-eIF2a substrate; read-out: Biochemical IC50. An excerpt: PERK In Vitro Activity Assay (Isolated):
In vitro Inhibition of PERK Enzyme Activity (isolated) Recombinant human EIF2AK2 (PKR) catalytic domain (amino acids 252-551), EIF2AK3 (PERK) catalytic domain (amino acids 536-1116), GFP-eIF2a substrate, and Terbium-labelled phospho-eIF2a antibody is obtained (Invitrogen, Carlsbad, CA).
Express and purify HIS-SUMO-GCN2 catalytic domain (amino acids 584-1019) from E. coli. Perform TR-FRET kinase assays in the absence or presence of inhibitors in a reaction buffer consisting of 50 mM HEPES, pH 7.5, 10 mM MgCb, 1.0 mM EGTA, and 0.01% Brij-35, and 100-200 nM GFP-eIF2a substrate. […] Add test compound, initiate the reaction by addition of enzyme, and incubate at room temperature for 45 minutes. Stop the reaction by addition of EDTA to a final concentration of 10 mM, add Terbium-labelled phospho-eIF2a antibody at a final concentration of 2 nM, and incubate for 90 minutes. Monitor the resulting fluorescence in an EnVison® Multilabel reader (PerkinElmer, Waltham, MA). Determine TR-FRET ratios and the resulting IC50 values using a 4-parameter nonlinear logistic equation as shown: Y=(A+((B−A)/(1+((C/x)[…])))) where, Y=% specific inhibition, A=Bottom of the curve, B=Top of the curve, C=absolute IC50 (concentration causing 50% inhibition), and D=hill slope.

The values that follow come from patent publication US12473296B2, “Perk inhibiting compounds” (HiberCell, Inc., priority 2019, dated 2025).

Broadly, the IC50 is the concentration that inhibits the measured activity by half.

EIF2AK3 (PERK) catalytic domain (amino acids 536-1116), sequence (Q9NZJ5 536-1116): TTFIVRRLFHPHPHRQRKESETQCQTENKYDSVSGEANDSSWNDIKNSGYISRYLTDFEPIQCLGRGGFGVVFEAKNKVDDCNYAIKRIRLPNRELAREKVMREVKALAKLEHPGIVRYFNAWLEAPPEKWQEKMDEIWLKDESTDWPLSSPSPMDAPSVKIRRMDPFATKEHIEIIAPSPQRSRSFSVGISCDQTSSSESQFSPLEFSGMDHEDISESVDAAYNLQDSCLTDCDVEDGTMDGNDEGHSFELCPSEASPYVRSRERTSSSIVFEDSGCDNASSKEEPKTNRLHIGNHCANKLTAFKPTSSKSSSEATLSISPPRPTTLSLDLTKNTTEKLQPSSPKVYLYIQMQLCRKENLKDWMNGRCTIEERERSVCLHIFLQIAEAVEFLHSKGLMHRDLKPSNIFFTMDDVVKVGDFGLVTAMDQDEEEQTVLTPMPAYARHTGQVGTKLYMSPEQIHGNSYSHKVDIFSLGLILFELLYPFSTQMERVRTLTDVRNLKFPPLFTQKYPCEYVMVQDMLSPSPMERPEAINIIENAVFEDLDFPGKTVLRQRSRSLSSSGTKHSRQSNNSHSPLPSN
PERK, sequence (Q9NZJ5 30-1116): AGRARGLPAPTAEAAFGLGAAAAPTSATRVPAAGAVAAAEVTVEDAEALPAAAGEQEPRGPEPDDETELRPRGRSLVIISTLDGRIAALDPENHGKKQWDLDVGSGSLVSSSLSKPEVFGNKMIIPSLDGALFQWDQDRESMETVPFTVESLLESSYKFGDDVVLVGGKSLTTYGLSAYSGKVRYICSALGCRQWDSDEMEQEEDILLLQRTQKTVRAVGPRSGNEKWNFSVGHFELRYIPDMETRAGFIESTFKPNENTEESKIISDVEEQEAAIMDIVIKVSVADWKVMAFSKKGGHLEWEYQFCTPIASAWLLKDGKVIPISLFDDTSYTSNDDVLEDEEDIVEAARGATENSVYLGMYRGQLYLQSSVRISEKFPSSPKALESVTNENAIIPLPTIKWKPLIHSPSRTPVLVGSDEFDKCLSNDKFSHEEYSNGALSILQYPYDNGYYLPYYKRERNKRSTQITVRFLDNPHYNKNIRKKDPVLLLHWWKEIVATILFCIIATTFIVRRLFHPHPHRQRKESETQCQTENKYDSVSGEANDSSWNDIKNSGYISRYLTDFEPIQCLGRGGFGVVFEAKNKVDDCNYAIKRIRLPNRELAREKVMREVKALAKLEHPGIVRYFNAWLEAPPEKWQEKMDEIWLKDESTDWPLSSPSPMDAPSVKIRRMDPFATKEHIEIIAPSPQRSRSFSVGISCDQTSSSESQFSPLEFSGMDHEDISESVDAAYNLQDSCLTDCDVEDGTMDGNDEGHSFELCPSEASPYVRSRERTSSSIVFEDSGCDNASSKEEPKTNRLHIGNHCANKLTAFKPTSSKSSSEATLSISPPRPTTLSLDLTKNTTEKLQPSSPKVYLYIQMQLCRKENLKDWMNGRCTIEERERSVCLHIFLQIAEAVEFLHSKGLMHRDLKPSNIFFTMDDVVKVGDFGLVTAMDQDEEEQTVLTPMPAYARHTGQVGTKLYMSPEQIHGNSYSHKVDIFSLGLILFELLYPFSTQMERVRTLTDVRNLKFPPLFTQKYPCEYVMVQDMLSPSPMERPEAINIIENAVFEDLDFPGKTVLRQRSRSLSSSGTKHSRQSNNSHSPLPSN

In the case of `Cc1cc(NC(=O)C(O)c2ccccc2)ccc1-c1cnc(N)c(C(=O)NC(C)C)c1` (single isomer, unassigned) [Example 1, 2-amino-5-(4-(2-hydroxy-2-phenylacetamido)-2-methylphenyl)-N-isopropylnicotinamide], the IC50 was 0.251 to 0.5 µM on PERK and 0.001 to 0.025 µM in assay [1].

Turning to `Cc1cc(NC(=O)C(O)c2ccccc2)ccc1-c1cnc(N)c(C(=O)NC(C)C)c1` (single isomer, unassigned) [Example 2, 2-amino-5-(4-(2-hydroxy-2-phenylacetamido)-2-methylphenyl)-N-isopropylnicotinamide], the IC50 on PERK was 0.101 to 0.25 µM; in assay [1] it was 0.001 to 0.025 µM.

For the compound `CNC(=O)c1cc(-c2ccc(NC(=O)C(O)c3cc(F)cc(F)c3)cc2C)cnc1N` (single isomer, unassigned) [Example 10, 2-amino-5-(4-(2-(3,5-difluorophenyl)-2-hydroxyacetamido)-2-methylphenyl)-N-methylnicotinamide], the concentration for half-maximal inhibition (IC50) at PERK fell in the range of 0.051 to 0.1 µM; in assay [1] it was 0.001 to 0.025 µM.

As for `CNC(=O)c1cc(-c2ccc(NC(=O)C(O)c3cc(F)cc(F)c3)cc2C)cnc1N` (single isomer, unassigned) [Example 11, 2-amino-5-(4-(2-(3,5-difluorophenyl)-2-hydroxyacetamido)-2-methylphenyl)-N-methylnicotinamide], the IC50 on PERK is 1 to 2 µM; in assay [1] it was 0.501 to 1 µM.

On to `CCNC(=O)c1cc(-c2ccc(NC(=O)C(O)c3cc(F)cc(F)c3)cc2C)cnc1N` (single isomer, unassigned) [Example 12, 2-amino-5-(4-(2-(3,5-difluorophenyl)-2-hydroxyacetamido)-2-methylphenyl)-N-ethylnicotinamide], for which the 50% inhibitory concentration (IC50) is 0.026 to 0.05 µM on PERK and 0.001 to 0.025 µM in assay [1].

With `CCNC(=O)c1cc(-c2ccc(NC(=O)C(O)c3cc(F)cc(F)c3)cc2C)cnc1N` (single isomer, unassigned) [Example 13, 2-amino-5-(4-(2-(3,5-difluorophenyl)-2-hydroxyacetamido)-2-methylphenyl)-N-ethylnicotinamide], the results for the IC50 (on PERK; in assay [1]) were 0.501 to 1 µM and 0.001 to 0.025 µM, respectively.

Regarding `Cc1cc(NC(=O)C(O)c2cc(F)cc(F)c2)ccc1-c1cnc(N)c(C(=O)NC(C)(C)C)c1` (single isomer, unassigned) [Example 16, 2-amino-N-(tert-butyl)-5-(4-(2-(3,5-difluorophenyl)-2-hydroxyacetamido)-2-methylphenyl) nicotinamide], the 50% inhibitory concentration (IC50) was in the range of 0.101 to 0.25 µM on PERK and 0.026 to 0.05 µM in assay [1].

As to `Cc1cc(NC(=O)C(O)c2cc(F)cc(F)c2)ccc1-c1cnc(N)c(C(=O)NC(C)(C)C)c1` (single isomer, unassigned) [Example 17, 2-amino-N-(tert-butyl)-5-(4-(2-(3,5-difluorophenyl)-2-hydroxyacetamido)-2-methylphenyl) nicotinamide], the IC50 at PERK fell in the range of 0.501 to 1 µM; in assay [1], 0.251 to 0.5 µM.

For `Cc1cc(NC(=O)C(O)c2cc(F)cc(F)c2)ccc1-c1cnc(N)c(C(=O)NCC(F)(F)F)c1` (single isomer, unassigned) [Example 18, 2-amino-5-(4-(2-(3,5-difluorophenyl)-2-hydroxyacetamido)-2-methylphenyl)-N-(2,2,2-trifluoroethyl) nicotinamide], the IC50 fell in the range of 0.026 to 0.05 µM on PERK and 0.001 to 0.025 µM in assay [1].

On to `Cc1cc(NC(=O)C(O)c2cc(F)cc(F)c2)ccc1-c1cnc(N)c(C(=O)NCC(F)(F)F)c1` (single isomer, unassigned) [Example 19, 2-amino-5-(4-(2-(3,5-difluorophenyl)-2-hydroxyacetamido)-2-methylphenyl)-N-(2,2,2-trifluoroethyl) nicotinamide], for which the IC50 (on PERK; in assay [1]) was 0.101 to 0.25 µM each time.

Consider `CCc1ccccc1CC(=O)Nc1ccc(-c2cnc(N)c(C(=O)NC(C)C)c2)c(C)c1` [Example 204, 2-amino-5-(4-(2-(2-ethylphenyl)acetamido)-2-methylphenyl)-N-isopropylnicotinamide], for which the IC50 in assay [1] is 0.101 to 0.25 µM.
